# Patent US12364670B2, “Cannabidiol-type cannabinoid compound” (JAZZ PHARMACEUTICALS RESEARCH UK LIMITED, priority 2019, dated 2025)
# How the values were obtained:
# [1] = tested on: electroshock-induced tonic hind limb extensor seizure (MEST) in the mouse; test: Maximal electroshock seizure threshold (MEST) test in the mouse, Example 2; details: for CC50 +/- SEM: vehicle CC50 21.0
# Procedure: The efficacy of CBD-C6 was tested in a mouse model of seizure, the maximal electroshock seizure threshold (MEST) test.
# The maximal electroshock seizure threshold (MEST) test is widely utilized preclinically to evaluate pro- and anti-convulsant properties of molecules (Loscher et al., 1991).
# In the MEST test the ability of a drug to alter the seizure threshold current required to induce hind limb tonic extensor convulsions is measured according to an “up and down” method of shock titration (Kimball et al., 1957). An increase in seizure threshold is indicative of anti-convulsant effect.
# Naïve mice were acclimatised to the procedure room in their home cages, with food and water available ad libitum.
# Animals were dosed i.p. according to dose group.
# The vehicle (10 ml/kg i.p. 60 min pre-treatment time) was 1:1:18 vehicle 5% ethanol, 5% kolliphor EL, 90% saline.
# The test compound, CBD-C6 was administered at doses of 10, 30 and 100 mg/kg given at 10 ml/kg i.p. 180 min pre-treatment time.
# Mice were individually assessed for the production of a tonic hind limb extensor seizure using a Hugo Sachs Electronik stimulator, which delivered an adjustable constant current (1-300 mA) of 0.1 s duration via corneal electrodes.
# The stimulus intensity was varied by an ‘up and down’ method of shock titration.
# This procedure continued for all mice within the treatment group. Data generated from treatment group of n=12 was used to calculate the CC50±s.e.m. values according to the method of Kimball et al. (1957).
# Induction of seizure is measured as an all-or-nothing effect scored as either present (+) or absent (0) for each animal.
# Data was analysed by comparing treated groups with the appropriate vehicle control using Fisher's Exact Probability tests.
# [2] = tested on: electroshock-induced generalised seizure threshold (MEST) in the mouse; test: Maximal electroshock seizure threshold (MEST) test in the mouse, Example 3; details: for CC50 ± SEM: vehicle CC50 24.3
# Procedure: The efficacy of CBD-C6 was tested in a mouse model of generalised seizure, the maximal electroshock seizure threshold (MEST) test as described in Example 2.
# Naïve mice were acclimatised to the procedure room in their home cages for up to 7 days, with food and water available ad libitum.
# All animals were weighed at the beginning of the study and randomly assigned to treatment groups based on a mean distribution of body weight across groups.
# The first animal within a treatment group was given a shock at the expected or estimated CC50 current. For subsequent animals, the current was lowered or raised depending on the convulsions outcome from the preceding animal.
# Data generated from each treatment group were used to calculate the CC50±SEM values for the treatment group.
# Vehicle: (5% ethanol, 5% solutol, 90% Saline) was prepared as follows: 1 mL of ethanol, 1 mL of solutol were warmed to 60° C., in 18 mL of saline (1:1:18).
# The test compound, CBD-C6 was prepared according to the method described in Example 1. CBD-C6 was administered at 10, 30 and 100 mg/kg (i.p.) in a 1:1:18 ethanol:solutol:0.9% saline formulation.
# CBD-C6 effects were also calculated as percentage change in CC50 from the vehicle control group. Significant difference between drug-treated animals and controls were assessed according to Litchfield and Wilcoxon (1949).
# [3] = 10 mg/kg i.p., 180 min pre-treatment
# [4] = 30 mg/kg i.p., 180 min pre-treatment
# [5] = 100 mg/kg i.p., 180 min pre-treatment
# [6] = 10 mg/kg i.p., 60 min pre-treatment
# [7] = 30 mg/kg i.p., 60 min pre-treatment
# [8] = 100 mg/kg i.p., 120 min pre-treatment
# [9] = 2.5 mg/kg i.p., 30 min pre-treatment
smiles,measurement,setting,value
"C=C(C)[C@@H]1CCC(C)=C[C@H]1c1c(O)cc(CCCCCC)cc1O [CBD-C6, Cannabidiol-C6]",% change from vehicle (CC50),[1]; [3],11%
same,CC50 +/- SEM,[1]; [3],23.4 mA
same,% change from vehicle (CC50),[1]; [4],63%
same,CC50 +/- SEM,[1]; [4],34.3 mA
same,% change from vehicle (CC50),[1]; [5],376%
same,CC50 +/- SEM,[1]; [5],>100 mA
same,% change from vehicle (CC50),[2]; [6],27%
same,CC50 ± SEM,[2]; [6],30.8 ± 1.9 mA
same,% change from vehicle (CC50),[2]; [7],29%
same,CC50 ± SEM,[2]; [7],31.5 ± 1.0 mA
same,% change from vehicle (CC50),[2]; [8],239%
same,CC50 ± SEM,[2]; [8],82.5 ± 0.7 mA
same,effect on MEST (in words),"[2]; 10, 30 and 100 mg/kg i.p., compared to vehicle",dose-related increase in MEST
"CCCC(CCC)C(=O)[O-].[Na+] [Sodium Valproate, sodium valproate, reference compound]",% change from vehicle (CC50),"[2]; 250 mg/kg i.p., 30 min pre-treatment",1057%
"CN1C(=O)CN=C(c2ccccc2)c2cc(Cl)ccc21 [Diazepam, diazepam, reference compound]",% change from vehicle (CC50),[1]; [9],40%
same,% change from vehicle (CC50),[2]; [9],255%
